Measurements taken from patent publication US5760036A, “Aminediol protease inhibitors” (E. R. Squibb & Sons, Inc., priority 1995, dated 1998).

Tests used:
HIV protease = target: T1, HIV protease (Human immunodeficiency virus type 1 group M subtype B, UniProt P04585); experiment: HIV Protease Assay; assay type: biochemical; settings: pH 5.5, 10 μM inhibitor, 4% DMSO, 450 μM substrate, pH 5.5, 30 minutes at 37° C., RP-HPLC; read-out: HIV Protease % Inhibition at 10 μM
T1 construct: and purified protease
How it was run: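 Purified protease cleaved 450 μM octapeptide substrate in 50 mM sodium acetate pH 5.5 with 100 μg/ml BSA for 30 minutes at 37° C; product analyzed by reverse-phase HPLC at UV220 after H3PO4 quench. Inhibitors tested at final 10 μM with 4% DMSO.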

[1] = test system: RF strain of HIV (CEM-SS cells); experiment: Cell Culture Anti-HIV Activity (cell viability, formazan); assay type: cell-based; settings: Human immunodeficiency virus 1, CEM-SS, 144 h, CEM-SS cells, RF strain of HIV, multiplicity of infection 0.04, 6 days at 37° C., 450 nm; read-out: HIV (CEM Cells) IC50
How it was run: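 CEM-SS cells (5000/well) infected with HIV RF at MOI 0.04, exposed to half-log serial compound dilutions, incubated 6 days at 37° C. Viability read by tetrazolium reduction to formazan, absorbance 450 nm. IC50 is the concentration raising formazan in infected cells to 50% of uninfected, drug-free cells.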

| inhibition at 10 µM (HIV protease) [%] | Structure (SMILES) | IC50 [1] [nM] |
| --- | --- | --- |
| 100 | CC(C)[C@H](NC(=O)CCc1c[nH]c2ccccc12)C(=O)N[C@@H](Cc1ccccc1)[C@H](O)CNC[C@@H](O)[C@H](Cc1ccccc1)NC(=O)OC(C)(C)C (relative stereo) [Compound 260, [1R*,2S*(2S*,3R*)]-N-[3-[[3-[[(1,1-Dimethylethoxy)carbonyl]amino]-2-hydroxy-4-phenylbutyl]amino]-2-hydroxy-1-(phenylmethyl)propyl]-N^2-[3-(1H-indol-3-yl)-1-oxo-propyl]-L-valinamide] | 290 |
| 97 | CC(C)(C)OC(=O)N[C@@H](Cc1ccccc1)[C@H](O)CNC[C@@H](O)[C@H](Cc1ccccc1)NC(=O)OC(C)(C)CCO [Compound 169, [1S-(1R*,2S*)]-Iminobis[2-hydroxy-1-(phenylmethyl)-3,1-propanediyl]]biscarbamic acid, 1,1-dimethylethyl-3-hydroxy-1,1-dimethylpropyl ester] | 200 |
| 95 | CC(C)(C)OC(=O)N[C@@H](Cc1ccccc1)[C@H](O)CNC[C@@H](O)[C@H](Cc1ccccc1)NC(=O)OC(C)(C)C#CCCc1ccccc1 [Compound 155, [1S-(1R*,2S*)]-[Iminobis[2-hydroxy-1-(phenylmethyl)-3,1-propanediyl]biscarbamic acid, 1,1-dimethylethyl 1,1-dimethyl-5-phenyl-2-pentynyl ester] | > 200 |
| 100 | CC(C)(C)OC(=O)N[C@@H](Cc1ccccc1)[C@H](O)CNC[C@@H](O)[C@H](Cc1ccc(OCCCc2nc3ccccc3o2)cc1)NC(=O)OC(C)(C)C [Compound 244, [1S-[1R*,2S*(2S*,3R*)]]-[3-[[3-[[(1,1-Dimethylethoxy)carbonyl]amino]-2-hydroxy-4-[4-[3-[(2-benzoxazolyl)-propoxy]phenyl]butyl]amino]-2-hydroxy-1-(phenylmethyl)propyl]carbamic acid, 1,1-dimethylethyl ester] | 1500 |
| 93 | CC(C)(C)OC(=O)N[C@@H](Cc1ccccc1)[C@H](O)CNC[C@@H](O)[C@H](Cc1ccccc1)NC(=O)OC(C)(C)CCCNC(=O)OCc1ccccc1 [Compound 150, [1S-(1R*,2S*)]-[Iminobis[2-hydroxy-1-(phenylmethyl)-3,1-propanediyl)]biscarbamic acid, 1,1-dimethylethyl 1,1-dimethyl-4-[[(phenylmethoxy)carbonyl]amino]butyl ester] | > 4000 |
| 99 | CC(C)(C)OC(=O)N[C@@H](Cc1ccccc1)[C@H](O)CNC[C@@H](O)[C@H](Cc1ccc(OCCCN2CCOCC2)cc1)NC(=O)OC(C)(C)C [Compound 201, [1S-[1R*,2S*(2S*,3R*)]]-[3-[[3-[[(1,1-Dimethylethoxy)carbonyl]aminol-2-hydroxy-4-[4-[3-(4-morpholinyl)propoxy]phenyl]butyl]amino]-2-hydroxy-1-(phenylmethyl)propyl]carbamic acid, 1,1-dimethylethyl ester] | 40 |
| 78 | CC(C)(C)OC(=O)N[C@@H](Cc1ccccc1)[C@H](O)CNC[C@@H](O)[C@H](CCc1ccccc1)NC(=O)OCc1ccccc1 [Compound 24, [1S-[1R*,2S*((2S*,3R*)]]-[3-[[3-[[(1,1-Dimethylethoxy)carbonyl]amino-2-hydroxy-4-phenylbutyl]amino]-2-hydroxy-1-(2-phenylethyl)propyl]carbamic acid, phenylmethyl ester] | 4500 |
| 99 | CC(C)(C)OC(=O)N[C@@H](Cc1ccccc1)[C@H](O)CNC[C@@H](O)[C@H](Cc1ccccc1)NC(=O)[C@H](CCO)NC(=O)OCc1ccccc1 (relative stereo) [Compound 264, [1R*2S*(2S*,3R*)]-N-[3-[[3-[[(1,1-Dimethylethoxy)carbonyl]amino]-2-hydroxy-4-phenylbutyl]amino]-2-hydroxy-l-(phenylmethyl)propyl]-N^2-[(phenylmethoxy)carbonyl]-L-homoserinamide] | 160 |
| 5 | CN(CC(O)C(Cc1ccccc1)NC(=O)OC(C)(C)C)CC(O)C(Cc1ccccc1)NC(=O)OC(C)(C)C (stereo not drawn) [Compound 200, [1S-[1R*,2R*(1R*)]]-[3-[[3-[[(1,1-Dimethylethoxy)carbonyl]-amino]-2-hydroxy-4-phenylbutyl]-methylamino]-2-hydroxy-1-(phenylmethyl)propyl]-carbamic acid, 1,1-dimethylethyl ester] | > 15000 |
| 100 | CC(C)[C@H](NC(=O)NCc1nc2ccccc2[nH]1)C(=O)N[C@@H](Cc1ccccc1)[C@H](O)CNC[C@@H](O)[C@H](Cc1ccccc1)NC(=O)OC(C)(C)C (relative stereo) [Compound 273, [1R*,2S*(2S*,3R*)]-N^2-[[(1H-Benzimidazol-2-ylmethyl)amino]carbonyl]-N-[3-[[3-[[(1,1-dimethylethoxy)carbonyl]amino]-2-hydroxy-4-phenylbutyl]amino]-2-hydroxy-1-(phenylmethyl)propyl]-L-valinamide] | 1700 |
| 58 | CC(C)[C@@H](NC(=O)OCc1ccccc1)C(=O)N[C@@H](Cc1ccccc1)[C@H](O)CNC[C@@H](O)[C@H](Cc1ccccc1)NC(=O)OC(C)(C)C [Compound 71, [R-[1S*,2R*(2R*, 3S*)]]-N-[3-[[3-[[(1,1-Dimethylethoxy)carbonyllamino]2-hydroxy-4-phenylbutyl]amino]-2-hydroxy-1-phenylmethyl)propyl]-N^2-[(phenylmethoxy)-carbonyl]-D-valinamide] | 1200 |
| 98 | CC(C)[C@H](NC(=O)CCc1nc2ccccc2[nH]1)C(=O)N[C@@H](Cc1ccccc1)[C@H](O)CNC[C@@H](O)[C@H](Cc1ccccc1)NC(=O)OC(C)(C)C [Compound 103, [S-[1R*,2S*(2S*,3R*)]-N^2-[3-(1H-Benzimidazol-2-yl)-1-oxo-propyl]-N-[3-[[3-[[(1,1-di-methylethoxy)carbonyl]amino-4-phenylbutyl]amino]-2-hydroxy-1-(phenylmethyl)propyl]-L-valinamide] | 1700 |
| 99 | CC(C)(C)OC(=O)N[C@@H](Cc1ccccc1)[C@H](O)CNC[C@@H](O)[C@H](Cc1ccccc1)NC(=O)[C@@H](NC(=O)CNC=O)C(C)(C)C (relative stereo) [Compound 286, [1R*,2S*(2S*,3R*)]-N-[3-[[(1,1-Dimethylethoxy)carbonyl]amino]-2-hydroxy-4-phenylbutyl]amino]-2-hydroxy-1-(phenylmethyl)propyl]-N^2-(N-formylglycyl)-3-methyl-L-valinamide] | 5000 |
| 98 | CC(C)[C@H](NC(=O)OCc1nc2ccccc2c(=O)[nH]1)C(=O)N[C@@H](Cc1ccccc1)[C@H](O)CNC[C@@H](O)[C@H](Cc1ccccc1)NC(=O)OC(C)(C)C (relative stereo) [Compound 222, [1R*,2S*(2S*,3R*)]-N^2-[[(3,4-Dyhydro-4-oxo-2-quinazolinyl)methoxy]carbonyl]-N-[3-[[3-[[(1,1-dimethylethoxy)carbonyl]amino]-2-hydroxy-4-phenylbutyl]amino]-2-hydroxy-1-(phenylmethyl)propyl]-L-valinamide] | 380 |
